Reference: patent US20160089439A1, “Prevention of Illicit Manufacutre of Methamphetamine from Pseudoephedrine Using Food Flavor Excipients” (Satara Pharmaceuticals, LLC, priority 2014, published 2016)

Columns and labels:
[1] = Reaction of excipient and pseudoephedrine with lithium in liquid ammonia, methamphetamine quantified; conditions: for Relative percentage of methamphetamine formation, Li—NH3 Reduction: excipient 1.0 mmol + pseudoephedrine 1.0 mmol, pseudoephedrine only = 100
[2] = Reaction of excipient and pseudoephedrine with red phosphorous and hydriodic acid, methamphetamine quantified; conditions: excipient 1.0 mmol + pseudoephedrine 1.0 mmol, 57% aqueous hydriodic acid, 90-100° C.; pseudoephedrine only = 100
[3] = species and route not given; cited from earlier work

Compound	Relative percentage of methamphetamine formation, Li—NH3 Reduction [1]	Relative percentage of methamphetamine formation, P—HI Reduction [2]	LD50 [3]	Inhibiting the conversion of pseudoephedrine to methamphetamine (in words) ([1]; summary of Table 1, both Li—NH3 and P—HI reductions)
Cc1cnc(C)c(C)n1 [2,3,5-Trimethylpyrazine]	8%	20%	–	–
CC(=O)c1nccs1 [2-Acetylthiazole]	<1%	–	–	–
CCOc1cnc(C)cn1 [2-Ethoxy-5-methylpyrazine]	7%	15%	–	–
CCOc1cncc(C)n1 [2-Ethoxy-6-methylpyrazine]	4%	13%	–	–
COc1nccnc1CC(C)C [2-Isobutyl-3-methoxypyrazine]	2%	27%	–	–
COc1nccnc1C [2-Methoxy-3-methylpyrazine]	<1%	2.0%	–	–
CC(=O)c1cnccn1 [Acetylpyrazine]	<<1%	6%	> 4000 mg/kg	most effective among all of the pyrazine derivatives tested
CC(C)COC(=O)c1ccccc1N [Isobutyl anthranilate]	<1%	2.3%	–	–
